Structures can show the parent of a compound that is named as a salt.
The compounds below were run against S1P1/EDG1 (Homo sapiens, UniProt P21453) (assay: S1P1 CRE-bla CHOK1 reporter assay, inhibition of Forskolin induced cAMP). Conditions: agonist activity range; S1P1 CRE-bla CHOK1 cells, 2 μM Forskolin; read-out: S1P1 ACTIVITY.
Assay type: cell-based
Experimental: Generation of S1P1-Mediated Inhibition of cAMP Reporter Assay
A mammalian expression plasmid containing S1P1/EDG1 cloned into pcDNA3.1 was purchased from Missouri S&T cDNA Resource Centre. […] S1P1/pcDNA3.1 was transfected into the CRE-bla CHO K1 (Invitrogen) cell line, and stable single cell clones were selected using standard techniques.
S1P1 CRE-Bla CHOK1 Reporter Assay—Characterization of S1P1 Agonists
Cells were seeded into 384-well black wall/clear bottom plates at 10^4 cells/well/19.5 μl assay media (DMEM-phenol free, 0.5% charcoal/dextran stripped serum, 2 mM glutamine, 0.1 mM NEAA, 1 mM Na-Pyruvate, 25 mM Hepes) and incubated for 18 hrs at 37° C. in 5% CO2. Dose response curves (10-point) were generated in 10 mM Hepes, 0.1% Pluronic F127, in the presence of Forskolin. Cells were treated with 0.5 μl compound in the presence of 2 μM Forskolin for 4 hrs at 37° C. The FRET-based β-lactamase fluorescent substrate (LiveBLAzer™-FRET B/G Loading Kit CC4-AM; Invitrogen) was prepared according to manufacturer's directions, and incubated with cells for 2 hrs at room temperature.

Sequence of S1P1/EDG1 (P21453 whole entry): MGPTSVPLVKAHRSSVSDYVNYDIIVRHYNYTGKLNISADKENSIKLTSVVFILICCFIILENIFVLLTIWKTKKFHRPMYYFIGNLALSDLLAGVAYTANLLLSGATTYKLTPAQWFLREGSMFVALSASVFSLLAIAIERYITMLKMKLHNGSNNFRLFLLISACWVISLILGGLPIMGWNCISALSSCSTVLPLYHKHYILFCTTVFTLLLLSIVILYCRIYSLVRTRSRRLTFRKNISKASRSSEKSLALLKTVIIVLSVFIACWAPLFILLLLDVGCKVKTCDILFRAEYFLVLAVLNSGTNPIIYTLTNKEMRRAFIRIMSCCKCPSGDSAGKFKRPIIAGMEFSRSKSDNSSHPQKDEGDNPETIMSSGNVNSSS

How did the EC50 turn out when `CC(C)Oc1ccc(-c2nnc(-c3cccc4c3CC[C@H]4NS(C)(=O)=O)s2)cc1C#N` [Compound 34, (R)—N-(4-(5-(3-cyano-4-isopropoxyphenyl)-1,3,4-thiadiazol-2-yl)-2,3-dihydro-1H-inden-1-yl)methanesulfonamide] was run?
Its EC50 is 0.05 to 0.5 nM.

Which EC50 does the source give for `CC(C)Oc1ccc(-c2nnc(-c3cccc4c3CCC[C@@H]4NC(=O)CCN(C)C)s2)cc1C#N` [Compound 256, (S)—N-(5-(5-(3-cyano-4-isopropoxyphenyl)-1,3,4-thiadiazol-2-yl)-1,2,3,4-tetrahydronaphthalen-1-yl)-3-(dimethylamino)propanamide] here?
The EC50 was 0.5 to 5 nM.

How did the EC50 turn out when `COC(=O)N[C@@H]1CCc2c(-c3cnc(-c4ccc(OC(C)C)c(C#N)c4)s3)cccc21` [Compound 89] was run?
Its EC50 is 0.5 to 5 nM.

Which EC50 does the source give for `CC(C)Oc1ccc(-c2nnc(-c3cccc4c3CC[C@H]4NS(=O)(=O)CC(=O)O)s2)cc1C#N` [Compound 41, (R)-2-(N-(4-(5-(3-cyano-4-isopropoxyphenyl)-1,3,4-thiadiazol-2-yl)-2,3-dihydro-1H-inden-1-yl)sulfamoyl)acetic acid] here?
The EC50 was under 0.05 nM.

Which EC50 does the source give for `CC(C)Oc1ccc(-c2nnc(-c3cccc4c3CCC[C@@H]4NCc3ncco3)s2)cc1C#N` [Compound 268] here?
Its EC50 is 0.5 to 5 nM.

Which EC50 does the source give for `CC(C)Oc1ccc(-c2nnc(-c3cccc4c3CCC[C@H]4NCC(=O)N3CCCC3)s2)cc1C#N` [Compound 303, (R)-2-isopropoxy-5-(5-(5-((2-oxo-2-(pyrrolidin-1-yl)ethyl)amino)-5,6,7,8-tetrahydronaphthalen-1-yl)-1,3,4-thiadiazol-2-yl)benzonitrile] here?
Its EC50 is 0.05 to 0.5 nM.

How did the EC50 turn out when `CC(C)Oc1ccc(-c2nnc(-c3cccc4c3CCC[C@H]4NC(=O)[C@H](N)CO)s2)cc1C#N` [Compound 247] was run?
Its EC50 is 0.5 to 5 nM.

`CNCC(=O)N[C@@H]1CCCc2c(-c3nnc(-c4ccc(OC(C)C)c(C#N)c4)s3)cccc21` [Compound 251] was tested. Which EC50 did it give?
Its EC50 is 0.5 to 5 nM.

`CC(C)Oc1ccc(-c2ncc(-c3cccc4c3CC[C@H]4NS(=O)(=O)C3CC3)s2)cc1C#N` [Compound 117] was tested. Which EC50 did it give?
Its EC50 is 0.05 to 0.5 nM.

How did the EC50 turn out when `CC(C)Oc1ccc(-c2nnc(-c3cccc4c3CCC[C@@H]4NC(=O)CCNS(C)(=O)=O)s2)cc1C#N` [Compound 254] was run?
Its EC50 is 0.5 to 5 nM.

`CC(C)Oc1ccc(-c2ncc(-c3cccc4c3CC[C@H]4NCc3ncc[nH]3)s2)cc1C#N` [Compound 109, (R)-5-(5-(1-(((1H-imidazol-2-yl)methyl)amino)-2,3-dihydro-1H-inden-4-yl)thiazol-2-yl)-2-isopropoxybenzonitrile] was tested. Which EC50 did it give?
The EC50 was 0.5 to 5 nM.

For `CC(C)Oc1ccc(-c2nnc(-c3cccc4c3CCC[C@@H]4NC(=O)c3cccnc3)s2)cc1C#N` [Compound 242], which EC50 is on record?
The EC50 was 0.5 to 5 nM.

With `CC(C)Oc1ccc(-c2nnc(-c3cccc4c3CCC[C@@H]4NS(=O)(=O)CC(=O)N(C)C)s2)cc1C#N` [Compound 293, (S)-2-(N-(5-(5-(3-cyano-4-isopropoxyphenyl)-1,3,4-thiadiazol-2-yl)-1,2,3,4-tetrahydronaphthalen-1-yl)sulfamoyl)-N,N-dimethylacetamide] as the compound, how does the EC50 read?
The EC50 was 0.05 to 0.5 nM.

`CC(C)Oc1ccc(-c2ncc(-c3cccc4c3CC[C@H]4NC(=O)[C@@H](N)CO)s2)cc1C#N` [Compound 79] was tested. Which EC50 did it give?
Its EC50 is 0.05 to 0.5 nM.

How did the EC50 turn out when `CC(C)Oc1ccc(-c2nnc(-c3cccc4c3CCC[C@H]4NCCS(C)(=O)=O)s2)cc1C#N` [Compound 296, (R)-2-isopropoxy-5-(5-(5-((2-(methylsulfonyl)ethyl)amino)-5,6,7,8-tetrahydronaphthalen-1-yl)-1,3,4-thiadiazol-2-yl)benzonitrile] was run?
Its EC50 is 0.05 to 0.5 nM.

Which EC50 does the source give for `CC(C)Oc1ccc(-c2ncc(-c3cccc4c3CC[C@H]4NC(=O)N3CCN(C)CC3)s2)cc1C#N` [Compound 190] here?
The EC50 was 0.5 to 5 nM.

Which EC50 does the source give for `CC(C)Oc1ccc(-c2ncc(-c3cccc4c3CC[C@H]4NC(=O)N3CCC(CO)CC3)s2)cc1C#N` [Compound 195] here?
The EC50 was 0.5 to 5 nM.

`CC(C)Oc1ccc(-c2nnc(-c3cccc4c3CCC[C@@H]4N)s2)cc1C#N` [Compound 229, (S)-5-(5-(5-amino-5,6,7,8-tetrahydronaphthalen-1-yl)-1,3,4-thiadiazol-2-yl)-2-isopropoxybenzonitrile hydrochloride] was tested. Which EC50 did it give?
Its EC50 is 0.5 to 5 nM.

Which EC50 does the source give for `CC(C)Oc1ccc(-c2nnc(-c3cccc4c3CCC[C@H]4NCc3cccnc3)s2)cc1C#N` [Compound 263, (R)-2-isopropoxy-5-(5-(5-((pyridin-3-ylmethyl)amino)-5,6,7,8-tetrahydronaphthalen-1-yl)-1,3,4-thiadiazol-2-yl)benzonitrile] here?
The EC50 was 0.5 to 5 nM.

For `CC(C)Oc1ccc(-c2nnc(-c3cccc4c3CC[C@H]4NC(=O)N3CCC[C@H](O)C3)s2)cc1C#N` [Compound 61], which EC50 is on record?
The EC50 was 0.05 to 0.5 nM.

How did the EC50 turn out when `COCCS(=O)(=O)N[C@@H]1CCc2c(-c3cnc(-c4ccc(OC(C)C)c(C#N)c4)s3)cccc21` [Compound 116] was run?
The EC50 was 0.5 to 5 nM.

`COCCS(=O)(=O)N[C@@H]1CCCc2c(-c3cnc(-c4ccc(OC(C)C)c(C#N)c4)s3)cccc21` [Compound 285] was tested. Which EC50 did it give?
The EC50 was 0.5 to 5 nM.

For `CC(C)Oc1ccc(-c2ncc(-c3cccc4c3CC[C@H]4NC(=O)N3CC[C@H](O)C3)s2)cc1C#N` [Compound 177], which EC50 is on record?
Its EC50 is 0.05 to 0.5 nM.

For `CC(C)Oc1ccc(-c2nnc(-c3cccc4c3CCC[C@H]4NCC(=O)O)s2)cc1C#N` [Compound 301, (R)-2-((5-(5-(3-cyano-4-isopropoxyphenyl)-1,3,4-thiadiazol-2-yl)-1,2,3,4-tetrahydronaphthalen-1-yl)amino)acetic acid], which EC50 is on record?
Its EC50 is 0.05 to 0.5 nM.

With `COCCN[C@@H]1CCc2c(-c3nnc(-c4ccc(OC(C)C)c(C#N)c4)s3)cccc21` [Compound 19] as the compound, how does the EC50 read?
The EC50 was 0.5 to 5 nM.

`CC(C)Oc1ccc(-c2nnc(-c3cccc4c3CCC[C@H]4NCCO)s2)cc1C#N` [Compound 299, (R)-5-(5-(5-((2-hydroxyethyl)amino)-5,6,7,8-tetrahydronaphthalen-1-yl)-1,3,4-thiadiazol-2-yl)-2-isopropoxybenzonitrile] was tested. Which EC50 did it give?
The EC50 was 0.5 to 5 nM.

Which EC50 does the source give for `CC(C)Oc1ccc(-c2ncc(-c3cccc4c3CC[C@H]4NCCO)s2)cc1C#N` [Compound 91, (R)-5-(5-(1-((2-hydroxyethyl)amino)-2,3-dihydro-1H-inden-4-yl)thiazol-2-yl)-2-isopropoxybenzonitrile] here?
Its EC50 is 0.5 to 5 nM.

Which EC50 does the source give for `COC(=O)CS(=O)(=O)N[C@H]1CCc2c(-c3nsc(-c4ccc(OC(C)C)c(C#N)c4)n3)cccc21` [Compound 313, (S)-methyl 2-(N-(4-(5-(3-cyano-4-isopropoxyphenyl)-1,2,4-thiadiazol-3-yl)-2,3-dihydro-1H-inden-1-yl)sulfamoyl)acetate] here?
Its EC50 is 0.05 to 0.5 nM.

For `CCS(=O)(=O)N[C@@H]1CCc2c(-c3cnc(-c4ccc(OC(C)C)c(C#N)c4)s3)cccc21` [Compound 113], which EC50 is on record?
The EC50 was 0.05 to 0.5 nM.

`CC(C)Oc1ccc(-c2nnc(-c3cccc4c3CCC[C@H]4NC(=O)CCN)s2)cc1C#N` [Compound 249] was tested. Which EC50 did it give?
Its EC50 is 0.5 to 5 nM.

`CC(C)Oc1ccc(-c2nc(-c3cccc4c3CC[C@@H]4NS(N)(=O)=O)ns2)cc1C#N` [Compound 309, (S)—N-(4-(5-(3-cyano-4-isopropoxyphenyl)-1,2,4-thiadiazol-3-yl)-2,3-dihydro-1H-inden-1-yl) sulfamide] was tested. Which EC50 did it give?
Its EC50 is 0.05 to 0.5 nM.

With `CC(C)Oc1ccc(-c2ncc(-c3cccc4c3CC[C@H]4NC(=O)CN3CCCC3)s2)cc1C#N` [Compound 85] as the compound, how does the EC50 read?
Its EC50 is over 5 nM.

Which EC50 does the source give for `CC(=O)N[C@H]1CCCc2c(-c3nnc(-c4ccc(OC(C)C)c(C#N)c4)s3)cccc21` [Compound 232, (S)—N-(5-(5-(3-cyano-4-isopropoxyphenyl)-1,3,4-thiadiazol-2-yl)-1,2,3,4-tetrahydronaphthalen-1-yl)acetamide] here?
The EC50 was 0.5 to 5 nM.

With `CC(C)Oc1ccc(-c2ncc(-c3cccc4c3CC[C@H]4NS(=O)(=O)Cc3ccccc3)s2)cc1C#N` [Compound 120] as the compound, how does the EC50 read?
The EC50 was 0.5 to 5 nM.

Which EC50 does the source give for `CC(C)Oc1ccc(-c2nsc(-c3cccc4c3CC[C@@H]4NS(N)(=O)=O)n2)cc1C#N` [Compound 310, (S)—N-(4-(3-(3-cyano-4-isopropoxyphenyl)-1,2,4-thiadiazol-5-yl)-2,3-dihydro-1H-inden-1-yl) sulfamide] here?
Its EC50 is 0.05 to 0.5 nM.

How did the EC50 turn out when `CC(C)Oc1ccc(-c2nnc(-c3cccc4c3CCC[C@@H]4NC(=O)CO)s2)cc1C#N` [Compound 246, (S)—N-(5-(5-(3-cyano-4-isopropoxyphenyl)-1,3,4-thiadiazol-2-yl)-1,2,3,4-tetrahydronaphthalen-1-yl)-2-hydroxyacetamide] was run?
Its EC50 is 0.05 to 0.5 nM.

For `CC(C)Oc1ccc(-c2nnc(-c3cccc4c3CCC[C@H]4NC(=O)CCO)s2)cc1C#N` [Compound 259], which EC50 is on record?
The EC50 was 0.05 to 0.5 nM.

`CC(C)Oc1ccc(-c2nc(-c3cccc4c3CC[C@@H]4NS(=O)(=O)CCO)ns2)cc1C#N` [Compound 314, (S)—N-(4-(5-(3-cyano-4-isopropoxyphenyl)-1,2,4-thiadiazol-3-yl)-2,3-dihydro-1H-inden-1-yl)-2-hydroxyethanesulfonamide] was tested. Which EC50 did it give?
The EC50 was 0.5 to 5 nM.

For `CC(C)Oc1ccc(-c2ncc(-c3cccc4c3CC[C@H]4NS(=O)(=O)CCN(C)C)s2)cc1C#N` [Compound 123], which EC50 is on record?
The EC50 was 0.5 to 5 nM.

For `CC(C)Oc1ccc(-c2ncc(-c3cccc4c3CC[C@H]4NC(=O)CN)s2)cc1C#N` [Compound 77], which EC50 is on record?
The EC50 was 0.05 to 0.5 nM.

For `CC(C)Oc1ccc(-c2nnc(-c3cccc4c3CCC[C@H]4NC(=O)c3ccncc3)s2)cc1C#N` [Compound 233], which EC50 is on record?
The EC50 was 0.5 to 5 nM.

How did the EC50 turn out when `CC(C)Oc1ccc(-c2ncc(-c3cccc4c3CC[C@@H]4NCC(=O)N3CC[C@@H](O)C3)s2)cc1C#N` [Compound 105] was run?
The EC50 was over 5 nM.

With `CC(C)Oc1ccc(-c2nnc(-c3cccc4c3CC[C@H]4NCC(=O)N3CCCC3)s2)cc1C#N` [Compound 39] as the compound, how does the EC50 read?
The EC50 was 0.05 to 0.5 nM.

— patent publication US9481659B2, “Selective heterocyclic sphingosine 1 phosphate receptor modulators” (Celgene International II SÀRL, priority 2011, dated 2016)
